Columns and labels:
MDA-MB-231 cell cycle = assay: Cell cycle analysis; assay type: cell-based
Description: FIGS. 5A-5D show the percentages of cells that are affected in different phase after treatment of PTA-1.
FIGS. 5A-5D illustrate how PTA-1 alters the progression of the MDA-MB-231 cell cycle. Etoposide is used as a positive control. FIG. 5A illustrates PTA-1 induced DNA fragmentation as denoted in the sub G0/G1 phase.

Jurkat cell line = assay: Differential nuclear staining cytotoxicity assay, Jurkat; assay type: cell-based; details: Homo sapiens, read-out: CC50 (50% cytotoxic concentration)
Description: In this illustrative example, PTA-1 can be identified through compound screening by performing differential nuclear staining assay on acute lymphoblastic leukemia CEM T-cell line. Differential nuclear staining assay measures cell viability using Hoechst 33342 fluorescent stain and propidium iodide dyes that stain all nuclei and dead cell nuclei. With reference now to FIG. 2, a table for evaluating cytotoxicity of PTA-1 on different cell lines is depicted in accordance with an illustrative embodiment. In FIG. 2, PTA-1 with chemical structure 100 shown in FIG. 1 is tested to determine cytotoxic activities of PTA-1 on different cell lines. In table 200, column 202 indicates the type of cells that are used to test cytotoxic activities of PTA-1, column 204 indicates the cell line used to test cytotoxic activities of PTA-1, column 206 indicates the CC50 values for different cell lines, and column 208 indicates the length of time that different cell lines are exposed to PTA-1. […] In this illustrative example, a lower CC50 value for a cell line indicates a higher level of PTA-1 cytotoxicity, meaning that PTA-1 is more toxic to the cell line.

[1] = Differential nuclear staining cytotoxicity assay, A549; assay type: cell-based; details: human; CC50 in non-cancerous cells divided by CC50 in A549; read-out: Selective cytotoxicity index (SCI)
Description: (§1) In this illustrative example, PTA-1 can be identified through compound screening by performing differential nuclear staining assay on acute lymphoblastic leukemia CEM T-cell line. Differential nuclear staining assay measures cell viability using Hoechst 33342 fluorescent stain and propidium iodide dyes that stain all nuclei and dead cell nuclei.
(§2) With reference now to FIG. 2, a table for evaluating cytotoxicity of PTA-1 on different cell lines is depicted in accordance with an illustrative embodiment. In FIG. 2, PTA-1 with chemical structure 100 shown in FIG. 1 is tested to determine cytotoxic activities of PTA-1 on different cell lines.
(§3) In table 200, column 202 indicates the type of cells that are used to test cytotoxic activities of PTA-1, column 204 indicates the cell line used to test cytotoxic activities of PTA-1, column 206 indicates the CC50 values for different cell lines, and column 208 indicates the length of time that different cell lines are exposed to PTA-1. […]
(§4) In this illustrative example, the selective cytotoxicity index value is used to determine if a compound has activity preferentially toward cancer cells. […] The selective cytotoxicity index (SCI) value is calculated by dividing the CC50 of the compound in non-cancerous cells (HS27 human fibroblasts or MCF-10A breast epithelial cells) by the CC50 in cancer cells. […]

[2] = system: A549 cell line for lung cancer; assay: as above; assay type: cell-based; details: A549, among all cancerous cell lines
Description: as §1, §2, §3, §4

[3] = Differential nuclear staining cytotoxicity assay, MDA-MB-231; assay type: cell-based; details: human; CC50 in MCF10A divided by CC50 in MDA-MB-231; read-out: Selective cytotoxicity index (SCI)
Description: as §1, §2, §3, §4

MDA-MB-231 cell line = assay: as above; assay type: cell-based; details: MDA-MB-231, among all cancerous cell lines
Description: as §1, §2, §3, §4

[4] = system: MCF10A cell line (non-cancerous breast epithelial cells); assay: Differential nuclear staining cytotoxicity assay, MCF10A; assay type: cell-based; details: MCF10A non-cancerous cell line vs cancerous lines
Description: as §1, §2, §3, §4

[5] = system: HS27 human fibroblasts (non-cancerous); assay: Differential nuclear staining cytotoxicity assay, HS27; assay type: cell-based; details: HS27 non-cancerous cell line vs cancerous lines
Description: as §1, §2, §3, §4

[6] = Differential nuclear staining cytotoxicity assay, NALM6; assay type: cell-based; details: human; CC50 in non-cancerous cells divided by CC50 in NALM6; read-out: Selective cytotoxicity index (SCI)
Description: as §1, §2, §3, §4

MDA-MB-231 cells = assay: Annexin V assay by flow cytometry (phosphatidylserine externalization); assay type: cell-based
Description: Phosphatidylserine externalization is a cellular process that involves the translocation of phosphatidylserine from the inner leaflet of the cell's plasma membrane to the outer leaflet. The externalization of phosphatidylserine is recognized by other cells as a signal for engulfment and removal without causing inflammation or damage.
The plot illustrated in FIG. 3 was generated by Annexin V assay analyzed by flow cytometry showing the externalization of the phospholipid phosphatidylserine (PS). Treatment of MDA-MB-231 cells with PTA-1 at concentrations of 10 μM and 20 μM for 24 hours induces apoptosis as shown by PS externalization. Each bar represents the average of at least three technical replicates.

[7] = system: caspase-3 in MDA-MB-231 cells; assay: Caspase-3 activation, NucView 488 substrate, flow cytometry; assay type: cell-based
Description: FIG. 4 depicts a plot illustrating PTA-1 induced caspase-3 activation in accordance with an illustrative embodiment. In FIG. 4, the induction of apoptosis from PTA-1 is corroborated by detecting the activation of the enzyme caspase-3. The fluorogenic reagent NucView 488 caspase-3 substrate was used to detect the activation of caspase 3 via flow cytometry. […] The average of 3 replicates is represented by each bar.
Caspase enzymes are activated during apoptosis and eventually result in DNA cleavage. In this example, caspase-3 is activated after exposure of the MDA-MB-231 cells at a concentration of 10 μM and 20 μM of PTA-1. […] The data shown in FIG. 4 corroborate the induction of apoptosis as the mechanism of cell death.

[8] = system: microtubules and microfilaments of MDA-MB-231 cells; assay: Cytoskeleton imaging by fluorescence microscopy; assay type: cell-based; details: 10 μM, 4 hours
Description: FIG. 8 illustrates alterations in cytoskeletal structures of MDA-MB-231 cells in response to treatment with PTA-1 in accordance with an illustrative embodiment. To test the hypothesis that PTA-1 acts as a tubulin inhibitor, we tested if it could cause alterations in the microtubule organization of MDA-MB-231 cells.
Disruption of cellular microtubules of MDA-MB-231 cells can be assessed by imaging microtubules using fluorescence microscopy.

tubulin = assay: Tubulin polymerization kinetics (absorbance at 340 nm); assay type: biochemical
Description: FIG. 9 depicts a graph illustrating tubulin polymerization of cells treated with PTA-1 in accordance with an illustrative embodiment. Graph 900 illustrates the kinetic curves of four different treatments for tubulin polymerization.
In this illustrative example, absorbance is directly correlated with tubulin polymerization. Therefore, if polymerization happens, there is an increase in the absorbance at 340 nm. […] In graph 900 tubulin polymerization can be clearly observed from the increasing absorbance after treatment with PTX. In this example, tubulin polymerization for cells treated with PTX drops immediately after 10 minutes.

## COc1cc([C@@H]2c3cc4c(cc3[C@@H](O[C@@H]3O[C@@H]5CO[C@@H](C)O[C@H]5[C@H](O)[C@H]3O)[C@H]3COC(=O)[C@H]23)OCO4)cc(OC)c1O [etoposide, reference compound]
MDA-MB-231 cell cycle; positive control
  Cells in the G2/M phase: 15.4%
  Cells with DNA fragmentation (sub G0/G1 phase): 28.6%

## COc1ccc(-c2cnn(CC(=O)Nc3cnn(C)n3)c2)cc1C(F)(F)F [PTA-1, 2-{4-[4-methoxy-3-(trifluoromethyl)phenyl]-1H-pyrazol-1-yl}-N-(2-methyl-2H-1,2,3-triazol-4-yl)acetamide]
Jurkat cell line
  CC50: 320 nM
[1]
  selectivity ratio: 105
[2]
  Sensitivity to PTA-1 (CC50 comparison): most sensitive
[3]
  selectivity ratio: 4.73
MDA-MB-231 cell line
  Sensitivity to PTA-1 (CC50 comparison): least sensitive
[4]
  Sensitivity to PTA-1 (CC50 comparison): significantly lower sensitivity
[5]
  Sensitivity to PTA-1 (CC50 comparison): significantly lower sensitivity
[6]
  selectivity ratio: 8.65
MDA-MB-231 cells; 10 μM, 24 hours
  Cell population with phosphatidylserine externalization: 59.4%
MDA-MB-231 cells; 20 μM, 24 hours
  Cell population with phosphatidylserine externalization: 59.7%
[7]; 10 μM
  Caspase-3 activation: significantly induced the activation of Caspase 3
[7]; 20 μM
  Caspase-3 activation: significantly induced the activation of Caspase 3
MDA-MB-231 cell cycle; 1.25 μM
  Cells in the G2/M phase: 53.25%
  Cells in the S phase: 19.8%
  DNA fragmentation (sub G0/G1 phase) vs DMSO and untreated: significantly higher rates of DNA fragmentations
MDA-MB-231 cell cycle; 2.5 μM
  Cells in the G2/M phase: 71.5%
  Cells in the S phase: 15.34%
  DNA fragmentation (sub G0/G1 phase) vs DMSO and untreated: significantly higher rates of DNA fragmentations
MDA-MB-231 cell cycle; 5 μM
  Cells in the G2/M phase: 66.47%
  Cells in the S phase: 24.6%
  DNA fragmentation (sub G0/G1 phase) vs DMSO and untreated: significantly higher rates of DNA fragmentations
MDA-MB-231 cell cycle; different concentrations
  Cells in the G0/G1 phase: did not result in a higher percentage of cells in the G0/G1 phase
[8]
  Microfilament structure (phalloidin-Alexa-568 staining): remained unaltered
  Microtubule organization (α-tubulin-Alexa-488 staining): disrupts the microtubule organization
tubulin; 340 nm, after 60 minutes of treatment, DMSO 0.3702
  Absorbance (tubulin polymerization): 0.3247
tubulin; absorbance at 340 nm
  Duration of nucleation phase (absorbance starts increasing): four
  Kinetic curve of tubulin polymerization compared with DMSO: never reached the absorbance values of cells treated with DMSO
  Time to reach steady state of tubulin polymerization: 20 min

## CC[C@]1(O)C[C@@H]2CN(CCc3c([nH]c4ccccc34)[C@@](C(=O)OC)(c3cc4c(cc3OC)N(C)[C@H]3[C@@](O)(C(=O)OC)[C@H](OC(C)=O)[C@]5(CC)C=CCN6CC[C@]43[C@@H]65)C2)C1 [Vinblastine, reference compound]
tubulin; absorbance at 340 nm
  Duration of nucleation phase (absorbance starts increasing): four
  Kinetic curve of tubulin polymerization compared with DMSO: never reached the absorbance values of cells treated with DMSO

## OO [H2O2, reference compound]
MDA-MB-231 cells; positive control
  Cell population with phosphatidylserine externalization: 49.9%

## CC(=O)O[C@H]1C(=O)[C@@]2(C)[C@H]([C@H](OC(=O)c3ccccc3)[C@]3(O)C[C@H](OC(=O)[C@H](O)[C@@H](NC(=O)c4ccccc4)c4ccccc4)C(C)=C1C3(C)C)[C@]1(OC(C)=O)CO[C@@H]1C[C@@H]2O [paclitaxel, reference compound]
tubulin; absorbance at 340 nm
  Growth phase of tubulin polymerization: started immediately
  Time after which tubulin polymerization drops: 10 min
